Experiment: method code SF-AS, from DOI: 10.1021/jm00146a003, PMID: 4020837
Settings: pH 7.4

Q: Which logD does the source give for `CCOC(=O)Cn1cnc(I)c1[N+](=O)[O-]` here?
A: 0.93

Q: For `O=[N+]([O-])c1nc[nH]c1I`, which logD is on record?
A: 0.28

Q: Which logD does the source give for `COCC(O)Cn1cnc([N+](=O)[O-])c1I` (centres undefined) here?
A: 0.41

Q: Which logD does the source give for `Cn1cnc([N+](=O)[O-])c1I` here?
A: 1

Q: Which logD does the source give for `O=C(Cn1cnc([N+](=O)[O-])c1I)Nc1cccnc1` here?
A: 0.46

Q: Which logD does the source give for `COCC(O)Cn1cnc(I)c1[N+](=O)[O-]` (centres undefined) here?
A: 0.89

Q: Which logD does the source give for `O=C(Cn1cnc([N+](=O)[O-])c1I)NCc1ccc[n+]([O-])c1` here?
A: -1.4

Q: For `Cn1cnc(I)c1[N+](=O)[O-]`, which logD is on record?
A: 1.29

Q: Which logD does the source give for `CCOC(=O)Cn1cnc([N+](=O)[O-])c1I` here?
A: 0.57

— the SangsterLogP compilation
